Measurements: patent publication US20030039580A1, “Stable preservative formulations comprising halopropynyl compounds and butoxydiglycol solvent” (Lonza Inc., priority 2001, published 2003)

Columns and labels:
Burkholderia cepacia = experiment: Minimum inhibitory concentration, IPBC and butoxydiglycol in protein shampoo (Example 4); format: cell-based
Method: Sample protein shampoos I, J and K were formed. Sample I contained only IPBC. Sample J contained only butoxydiglycol. Sample K contained both IPBC and butoxydiglycol. […] Synergism for the IPBC/butoxydiglycol studies in Table 5 was calculated by the method described in C. E. Kull et al., “Mixtures of Quaternary Ammonium Compounds and Long-Chain Fatty Acids as Antifungal Agents”, Applied Microbiology, 4:538-541(1961). The Kull method determines the quantity of each component in a mixture which is required to reach a given microbiological endpoint (e.g., MIC), and compares that amount with the quantity of the pure component necessary to reach the same endpoint. According to this method, a synergism index or value QA/QB+Qa/Qb is determined, wherein: […]

Bacteria = experiment: Antibacterial screening of propynyl compositions in protein shampoo formulations (Example 3); format: cell-based; settings: Table 4, 500 ppm in protein shampoo pH 7.0 (GPL 1000 ppm), solvent butoxydiglycol (A, H) or butylene glycol (F, G)
Description: (§1) Samples of a standard protein shampoo (pH-7.0) were formed. The shampoo contained the following preservative-free ingredients, w/w % Samples A, […] and H contained active preservative iodopropynyl agents in a solvent. Samples A and H contained butoxydiglycol as the solvent. Samples F and G (containing a propynyl compound rather than a halopropynyl compound) contained butylene glycol as the solvent.

[1] = Solubility testing of propynyl compounds in solvents; format: physicochemical; settings: for Solubility in Butanediol Anhydrous: solvent Butanediol Anhydrous; for Solubility in Butoxydiglycol: solvent Butoxydiglycol; for Solubility in Sorbitol: solvent Sorbitol
Description: The compounds used in Example 1 are identified below in Table 1. The results of the solubility testing is shown below in Table 2.

Fungi = experiment: Antifungal screening of propynyl compositions in protein shampoo formulations (Example 3); format: cell-based; settings: Table 4, 500 ppm in protein shampoo pH 7.0 (GPL 1000 ppm), solvent butoxydiglycol (A, H) or butylene glycol (F, G)
Description: as §1

[2] = test system: mixed fungi, comprising A. niger (ATCC 16404) and C. albicans (ATCC 10231); experiment: Inhibition of mixed fungi by propynyl compound solutions in protein shampoo (Example 2); format: cell-based; settings: Table 3, 500 ppm in protein shampoo (GPL 1000 ppm), solvent butoxydiglycol (A, E) or butylene glycol (B, C, D)
Method: (§2) Each of the samples A to E is a protein shampoo comprising a propynyl compound. The samples were tested for antibacterial and antifungal properties by testing for inhibition of a mixed bacteria, comprising E. coli (ATCC 8739), P. aeruginosa (ATCC 9027), and S. aureus (ATCC 6538), and inhibition of a mixed fungi, comprising A. niger (ATCC 16404) and C. albicans (ATCC 10231).
(§3) The samples “GPL” and “NP” are controls. “GPL” is 0. 1% Glydantg Plus, a liquid antimicrobial preservative available from Lonza Inc., Fair Lawn, N.J., containing a dimethyol dimethyl hydantoin formaldehyde donor. Glydant® Plus is used in personal care formulations in cosmetics and personal care products.
(§4) In Table 3, samples A and E consist of an iodopropynyl compound in a butoxydiglycol solvent. Samples C and D consist of an iodopropynyl compound in a butylene glycol solvent, and Sample B consists of a propynyl compound in a butylene glycol solvent.

[3] = test system: mixed bacteria, comprising E. coli (ATCC 8739), P. aeruginosa (ATCC 9027), and S. aureus (ATCC 6538); experiment: Inhibition of mixed bacteria by propynyl compound solutions in protein shampoo (Example 2); format: cell-based; settings: Table 3, 500 ppm in protein shampoo (GPL 1000 ppm), solvent butoxydiglycol (A, E) or butylene glycol (B, C, D)
Method: as §2, §3, §4

Solubility in Butanediol Anhydrous [1] | Solubility in Sorbitol [1] | Structure (SMILES) | MIC (Burkholderia cepacia; Burkholderia cepacia, single active alone in protein shampoo, complete inhibition of growth, read-out: MIC, ppm active) | Concentration (ppm) QB (Burkholderia cepacia; Table 6, parameter MIC) | DAY 0 Bacteria (cfu/ml) (Bacteria) | DAY 14 Bacteria (cfu/ml) (Bacteria) | DAY 28 Bacteria (cfu/ml) (Bacteria) | Solubility in Butoxydiglycol [1] | DAY 0 Fungi (cfu/ml) (Fungi) | DAY 14 Fungi (cfu/ml) (Fungi) | DAY 28 Fungi (cfu/ml) (Fungi) | DAY 0 Fungi (cfu/ml) [2] | DAY 14 Fungi (cfu/ml) [2] | DAY 28 Fungi (cfu/ml) [2] | DAY 0 Bacteria (cfu/ml) [3] | DAY 14 Bacteria (cfu/ml) [3] | DAY 28 Bacteria (cfu/ml) [3] | Concentration (ppm) QA (Burkholderia cepacia; Table 6, parameter MIC) | MIC, ppm active (Burkholderia cepacia; single active alone in protein shampoo, complete inhibition of growth)
 |  | CCCCOCCOCCO [Butoxydiglycol, 2-(2-butoxyethoxy)ethanol] | 12.5 mg/mL | 12,500 ppm |  |  |  |  |  |  |  |  |  |  |  |  |  |  | 
− |  | O=c1c(Cl)cn(CC#CI)c(=O)n1CC#CI [Compound L58, 1N,3N-Diiodopropyn-2-yl-5-chlorouracil] |  |  | 9.00 × 10^6 cfu/ml | <10 cfu/ml | <10 cfu/ml | + | 1.00 × 10^5 cfu/ml | <10 cfu/ml | <10 cfu/ml | 1.00 × 10^5 cfu/ml | <10 cfu/ml | <10 cfu/ml | 8.00 × 10^6 cfu/ml | <10 cfu/ml | <10 cfu/ml |  | 
+ |  | O=C(C#CI)c1ccc(C(F)(F)F)cc1 [Compound L74, 3-iodo-1-(4-trifluoromethylphenyl)-2-propyn-1-one] |  |  |  |  |  | + |  |  |  | 1.00 × 10^5 cfu/ml | <10 cfu/ml | >10^3 cfu/ml | 8.00 × 10^6 cfu/ml | >3.0 × 10^3 cfu/ml | >10^3 cfu/ml |  | 
+ | − | OC(C#CI)c1cccs1 (centres unmarked) [Compound L90, 2-(3-iodo-2-propyn-1-ol-yl) thiophene] |  |  |  |  |  | + |  |  |  | 1.00 × 10^5 cfu/ml | <10 cfu/ml | >10^3 cfu/ml | 7.00 × 10^6 cfu/ml | >3.0 × 10^3 cfu/ml | >10^3 cfu/ml |  | 
 |  | OC(C#CI)c1ccc(Cl)s1 (centres unmarked) [Compound L100] |  |  | 8.00 × 10^6 cfu/ml | 2.00 × 10^1 cfu/ml | 200 cfu/ml |  | 1.00 × 10^5 cfu/ml | <10 cfu/ml | <10 cfu/ml |  |  |  |  |  |  |  | 
− | − | Cc1ccc(C(Cn2ccnc2)OCC#CI)cc1 (centres unmarked) [Compound L103, 2-(1-imidazolyl)-1-(4-methylphenyl)ethyl iodopropargyl ether] |  |  |  |  |  | + |  |  |  | 1.00 × 10^5 cfu/ml | 500 cfu/ml | 400 cfu/ml | 7.00 × 10^6 cfu/ml | <10 cfu/ml | <10 cfu/ml |  | 
+ | − | C#CC(=O)c1ccc(C#N)cc1 [Compound L106, 1-(4-cyanophenyl)-2-propyn-1-one] |  |  | 8.00 × 10^6 cfu/ml | >1.0 × 10^4 cfu/ml | <10 cfu/ml | + | 1.00 × 10^5 cfu/ml | >1.0 × 10^3 cfu/ml | 100 cfu/ml |  |  |  |  |  |  |  | 
 |  | O=C(O)CCOCC#CI [Compound L111, Iodopropynyloxypropionic Acid] |  |  | 8.00 × 10^6 cfu/ml | <10 cfu/ml | <10 cfu/ml |  | 8.00 × 10^6 cfu/ml | <10 cfu/ml | <10 cfu/ml |  |  |  |  |  |  |  | 
 |  | CCCCNC(=O)OCC#CI [IPBC, 3-iodo-2-propynyl butyl carbamate] |  |  |  |  |  |  |  |  |  |  |  |  |  |  |  | 1,250 ppm | 1,250 ppm
